According to patent publication US20220088031A1, “METHODS AND COMPOSITIONS FOR TREATING RESISTANT AND RECURRENT FORMS OF CANCER” (Health Research, Inc., priority 2019, published 2022):

How the values were obtained:
[1] = system: Nrf1 binding with CC promoter in E006AA cells; test: Chromatin immunoprecipitation (ChIP) assay, Nrf1 binding with CC promoter; assay type: cell-based, human
Method: Chromatin immunoprecipitation (ChIP) assay: The association of Nrf1 transcription factor with CYCS promoter within the LNCaP and E006AA cells was detected using a chromatin immunoprecipitation (ChIP) Assay Kit (Millipore, Billerica, Mass.; Cat #17-295) according to the manufacturer's instructions. In brief, 1 million cells were fixed in formaldehyde for 15 min and chromatin was sheared using Bioruptor sonication device for 10 min in ice with 30 sec on/off cycle (Diagenode, Denville, N.J.). Ten μ1 sonicated samples (of 2 ml total volume) were separated as input. Chromatin was immunoprecipitated with 1.0 μg of Nrf1 or normal rabbit IgG (Santa Cruz Biotechnology) antibody at 4° C. overnight. Each sample (5 μl) was used as a template for PCR amplification and 20 μl of the 50 μl PCR product was loaded onto agarose gels. CYCS oligonucleotide sequence encompasses the CYCS promoter segment that includes the Nrf1 binding sites for PCR primers viz 5′-[…]-3′ [SEQ ID:7] and 5′-[…]-3′ [SEQ ID:8]. PCR mixtures were amplified for 1 cycle at 94° C. for 5 min followed by 35 cycles at 94° C. for 30 s, 55° C. for 30 s and 72° C. for 30 s, and then subjected to final elongation at 72° C. for 10 min. PCR products were run on 2% agarose gel and analyzed using ethidium bromide staining.

[2] = system: p-Drp1^S616 in E006AA cells; test: Immunoblot analysis of p-Drp1^S616 and Drp1; assay type: cell-based, human; settings: AA PCa cells; c-Myc I 75 μM, NF-κB I 50 μM, AKT Act 5 μM
Method: (§1) Immunoblotting: Immunoblotting was performed as described previously. Protein lysates were prepared using a lysis in NP-40 buffer (50 mM Tris-HCl pH 7.4, 150 mM NaCl, 1 mM EDTA, 1 mM EGTA, 1% NP-40) supplemented with protease and phosphatase inhibitor cocktail. Protein content was quantified using a micro BCA protein estimation kit (Thermo Scientific, Waltham, Mass.; Cat #23235). Protein samples were resolved on 4-20% Criterion gels, transferred on nitrocellulose membranes (BioRad, Hercules, Calif.) and subjected to immunoblotting. Membranes were blocked in 5% fat free dry milk (Blotto, Santa Cruz, Dallas, Tex.; Cat #sc-2324) prepared in PBS-T (Tween-20) and incubated overnight in primary antibodies (1:1000 dilution) at 4° C. with continuous shaking. After washing with PBS-T, membranes were incubated in HRP conjugated anti-mouse or anti-rabbit secondary antibody at room temperature for 1 hr. After washing with PBS-T, proteins were detected using Clarity chemiluminescent reagent (BioRad, Hercules, Calif.; Cat #1705061) and X-Ray films (ASI, Fort Lauderdale, Fla.; Cat #XR1570). Membranes were stripped using stripping buffer and probed with HRP conjugated beta-actin antibody to ensure equal loading of proteins.

E006AA cells [3] = test: Clonogenic assay; assay type: cell-based, human
Method: Clonogenic assay: PCa cells were seeded in each well of 6 well cell culture plates. Cells were treated and plates were incubated in a CO2 cell culture incubator for 6 more days. Colonies were fixed in 10% formalin first and stained with 0.5% crystal violet solution. Plates were dried and pictures were captured using a Gel documentation system and Coomassie blue filter (Bio Rad, Hercules, Calif.).

E006AA cells [4] = test: Seahorse XF bioenergetics assay, glycolytic reserve capacity; assay type: cell-based, human; settings: for glycolytic reserve capacity: in the presence of DOC, compared to control or DOC alone
Method: Seahorse XF bioenergetics assay: Basal glycolytic reserve capacity in PC-3, DU145, and […] PCa cells was assessed using an Agilent seahorse XF glycolytic stress test kit (Agilent Technologies Inc., Wilmington, Del.) and a Seahorse XF96 analyzer (Agilent Technologies Inc., Wilmington, Del.) analyzer as described. ATP production in […] cells after treatment with drug combinations was assessed using a Mito Stress test kit (Agilent Technologies Inc., Wilmington, Del.).

E006AA hT xenografts = test: Human PCa xenograft study; assay type: in vivo, SCID mice; settings: 3 weeks
Source text: Human PCa xenograft study: SCID (C.B-Igh-1^b/IcrTac-Prkdc^[…]) mice (6 weeks old) were purchased from an in house colony maintained by Roswell Park Laboratory Animal Shared Resource. Animal protocols were approved by the Roswell Park Institutional Animal Care and Use Committee (IACUC protocol #1306M). E006AA hT cells (80% confluency) were harvested and live cells quantified. Harvested cells were washed and resuspended in serum-free DMEM/F-12 (1:1) mix. Four ×10^6 E006AA hT cells were mixed with Matrigel (1:1) and injected subcutaneously in the right and left flanks of each mouse. When xenograft tumors reached 5 mm in diameter (22 days post injection), mice were randomly divided into 6 groups of 4 mice. First group received 100 μl Neobee M5 oil (vehicle) and 100 μl normal saline each twice weekly. Second group received 100 μl Neobee M5 oil and DOC (6 mg/kg bw) twice weekly. Third group received 10058-F4 (20 mg/kg bw) and DOC (6 mg/kg bw) twice weekly. Fourth group received JSH-23 (3 mg/kg bw) and DOC (6 mg/kg bw) twice weekly. Fifth group received 10058-F4 (20 mg/kg bw) and normal saline twice weekly. Sixth group received JSH-23 (3 mg/kg bw) and normal saline twice weekly. All treatments were administered for 3 weeks. Mice were euthanized, tumors were excised and flash frozen in liquid nitrogen. The tissue lysates were used for caspase-3 activity and Western blotting of CC, cleaved PARP, and cleaved caspase-3 proteins.
as §1
(§2) Caspase-3 (DEVDase) activity assay: PCa cell lysates prepared in NP40 lysis buffer were incubated with DEVD-AFC (caspase-3 substrate) at 37° C. for 90 min in caspase activity assay buffer (50 mM HEPES pH 7.4, 150 mM NaCl, 1% CHAPS, 1 mM EDTA, 1 mM DTT, 50% glycerol). Fluorescence intensity was detected using a Synergy microplate reader at excitation and emission wavelengths of 400 nm and 508 nm, respectively. Arbitrary fluorescence units were normalized with protein content of cell lysates and represented as fold change compared to control groups.

RC-77 T/E cells = test: Cell death, DEVDase activity and CC expression in a second AA PCa cell line; assay type: cell-based, human; settings: both AA PCa cell lines; for CC expression / caspase-3 activity: DOC with or without inhibitor, 24 hrs; for cell death: not as effective as in CA PCa cells
Method: as §1
Cell viability assay: PCa cells (5×10^4 cells/well) were seeded on 6-well cell culture plates and incubated with DOC (1-20 nM) for 24 hrs. Floating and attached cells were collected using trypsinization. Live and dead cells were counted under a light microscope using a trypan blue exclusion assay.
as §2

E006AA cells [5] = test: Mitochondrial ROS production, MitoSOX dye, flow cytometry; assay type: cell-based, human
[6] = in combination with DOC (6 mg/kg bw) twice weekly
[7] = inhibitor alone, 10058-F4 20 mg/kg bw or JSH-23 3 mg/kg bw twice weekly

Compound: Cc1ccc(NCCCc2ccccc2)c(N)c1 [NF-κB inhibitor, JSH-23]
- binding of Nrf1 to the CC promoter ([1]; agent alone): enhanced binding of Nrf1 to the CC promoter
- binding of Nrf1 to the CC promoter ([1]; combined with DOC (24 hrs)): enhanced binding of Nrf1 to the CC promoter
- levels of p-Drp1^S616 [2]: increased the levels of p-Drp1^S616
- colony forming ability (CFA) (E006AA cells [3]; with DOC): reduced the CFA
- colony forming ability (CFA) (E006AA cells [3]; without DOC): reduced the CFA
- glycolytic reserve capacity (E006AA cells [4]): inhibited glycolytic reserve capacity
- CC expression in xenografts (E006AA hT xenografts; [6]): further upregulated
- PARP cleavage in xenografts (E006AA hT xenografts; [6]): PARP cleavage
- caspase-3 activation in xenografts (E006AA hT xenografts; [6]): caspase-3 activation
- CC expression in xenografts (E006AA hT xenografts; [7]): induced CC expression
- CC expression (RC-77 T/E cells): induced CC expression
- caspase-3 activity (RC-77 T/E cells): activated caspase-3 activity
- cell death (RC-77 T/E cells): enhanced cell death
- MitoROS production (E006AA cells [5]; agent alone): MitoROS production
- MitoROS production (E006AA cells [5]; in combination with DOC): MitoROS production

Compound: CCc1ccc(/C=C2/SC(=S)NC2=O)cc1 [c-Myc inhibitor, 10058-F4]
- binding of Nrf1 to the CC promoter ([1]; agent alone): enhanced binding of Nrf1 to the CC promoter
- binding of Nrf1 to the CC promoter ([1]; combined with DOC (24 hrs)): enhanced binding of Nrf1 to the CC promoter
- levels of p-Drp1^S616 [2]: increased the levels of p-Drp1^S616
- colony forming ability (CFA) (E006AA cells [3]; with DOC): reduced the CFA
- colony forming ability (CFA) (E006AA cells [3]; without DOC): reduced the CFA
- glycolytic reserve capacity (E006AA cells [4]): inhibited glycolytic reserve capacity
- CC expression in xenografts (E006AA hT xenografts; [6]): further upregulated
- PARP cleavage in xenografts (E006AA hT xenografts; [6]): PARP cleavage
- caspase-3 activation in xenografts (E006AA hT xenografts; [6]): caspase-3 activation
- CC expression in xenografts (E006AA hT xenografts; [7]): induced CC expression
- CC expression (RC-77 T/E cells): induced CC expression
- caspase-3 activity (RC-77 T/E cells): activated caspase-3 activity
- cell death (RC-77 T/E cells): enhanced cell death

Compound: bisperoxovanadium 5-hydroxipyridine [AKT activator]
- binding of Nrf1 to the CC promoter ([1]; agent alone): enhanced binding of Nrf1 to the CC promoter
- binding of Nrf1 to the CC promoter ([1]; combined with DOC (24 hrs)): enhanced binding of Nrf1 to the CC promoter
- levels of p-Drp1^S616 [2]: increased the levels of p-Drp1^S616
- colony forming ability (CFA) (E006AA cells [3]; with DOC): reduced the CFA
- colony forming ability (CFA) (E006AA cells [3]; without DOC): reduced the CFA
- glycolytic reserve (E006AA cells [4]; agent alone): inhibited glycolytic reserve
- glycolytic reserve capacity (E006AA cells [4]): inhibited glycolytic reserve capacity
- MitoROS production (E006AA cells [5]; agent alone): MitoROS production
- MitoROS production (E006AA cells [5]; in combination with DOC): MitoROS production
